22 compounds from US10214546B2, “Btk inhibitors” (MERCK SHARP & DOHME CORP., priority 2014, dated 2019) can be followed below.

As a reminder, the IC50 is the concentration that inhibits the measured activity by half.

Like-named read-outs stand apart in the source and are kept apart here.

The target in assay [1] is BTK enzyme (recombinant full-length BTK, hBTK) (Homo sapiens (Human), UniProt Q06187). Nature of the assay: BTK enzymatic activity LANCE TR-FRET assay. Type of assay: biochemical. The settings on record: 50 pM hBTK, 25 μM ATP, 2 μM biotin-A5-peptide; compound range 1 μM to 0.017 nM; read-out: BTK binding IC50. On the technique in general: Time-resolved FRET reads energy transfer from a long-lived donor to a nearby acceptor.

Assay [2] deals with adenosine uptake into HeLa cells. Nature of the assay: [3H]Adenosine uptake assay in HeLa cells. Type of assay: cell-based. To be noted: [3H]adenosine accumulation in HeLa cells, compound range 10 μM to 0.032 nM, read-out: ADU inhibition IC50. In outline:
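HeLa cells in HBSS + 5% FBS were preincubated 30 min at ambient temperature with compound (ten-point 1:3 series, 10 µM–[…] final), then given [3H]adenosine (added as a 500 nM solution) for 60 min. Cell-associated label was read by scintillating-plate proximity counting; IC50 from 4-parameter fit of cps versus log concentration.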

Chain of BTK enzyme (recombinant full-length BTK, hBTK) (Q06187 whole entry): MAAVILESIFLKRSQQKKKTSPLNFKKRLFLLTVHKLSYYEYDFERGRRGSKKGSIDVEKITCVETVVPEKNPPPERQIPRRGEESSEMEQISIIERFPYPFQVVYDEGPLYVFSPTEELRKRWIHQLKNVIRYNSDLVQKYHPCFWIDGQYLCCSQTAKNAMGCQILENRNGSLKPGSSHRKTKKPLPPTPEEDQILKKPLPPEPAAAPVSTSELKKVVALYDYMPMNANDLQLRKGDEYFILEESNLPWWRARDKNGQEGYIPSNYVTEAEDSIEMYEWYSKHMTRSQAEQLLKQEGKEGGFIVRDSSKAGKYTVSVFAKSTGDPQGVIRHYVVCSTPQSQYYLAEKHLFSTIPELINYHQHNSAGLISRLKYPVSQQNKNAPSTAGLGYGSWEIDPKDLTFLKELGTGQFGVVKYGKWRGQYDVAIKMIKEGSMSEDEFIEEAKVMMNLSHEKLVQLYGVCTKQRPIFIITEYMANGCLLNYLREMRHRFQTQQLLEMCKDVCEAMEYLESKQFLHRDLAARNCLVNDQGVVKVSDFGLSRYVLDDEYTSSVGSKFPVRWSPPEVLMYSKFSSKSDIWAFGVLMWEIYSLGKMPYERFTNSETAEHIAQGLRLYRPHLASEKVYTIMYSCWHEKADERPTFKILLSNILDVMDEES

Take `C[C@@](O)(c1ccc(-c2nc([C@@H]3CC[C@H]4CCC(=O)N4C3)n3ccnc(N)c23)cc1)c1cccc(C(F)F)c1` [Example 71, (6R,8aS)-6-[8-amino-1-(4-{(1R)-1-[3-(difluoromethyl)phenyl]-1-hydroxyethyl}phenyl)imidazo[1,5-a]pyrazin-3-yl]hexahydroindolizin-3(2H)-one]: the concentration for half-maximal inhibition (IC50) stood at 0.19 nM in assay [1] and 5120 nM in assay [2] (Homo sapiens, HeLa).
In the case of `C[C@@](O)(c1ccc(-c2nc([C@@H]3CC[C@H]4C(C(F)(F)F)CC(=O)N4C3)n3ccnc(N)c23)cc1)c1cccc(C(F)(F)F)c1` (stereo partly drawn) [Example 179, (1R,6R,8aS)-6-[8-amino-1-(4-{(1R)-1-hydroxy-1-[3-(trifluoromethyl)phenyl]ethyl}phenyl)imidazo [1,5-a]pyrazin-3-yl]-1-(trifluoromethyl) hexahydroindolizin-3(2H)-one], the concentration for half-maximal inhibition (IC50) in assay [1] was 3.5 nM; in assay [2] (Homo sapiens, HeLa) it was 3300 nM.
Turning to `COc1ccccc1[C@](C)(O)c1ccc(-c2nc([C@@H]3CC[C@H]4CCC(=O)N4C3)n3ccnc(N)c23)cc1` [Example 50, (6R,8aS)-6-(8-amino-1-{4-[(1R)-1-hydroxy-1-(2-methoxyphenyl)ethyl]phenyl}imidazo[1,5-a]pyrazin-3-yl)hexahydroindolizin-3(2H)-one], the 50% inhibitory concentration (IC50) in assay [1] turned out to be 243 nM; in assay [2] (Homo sapiens, HeLa), 1220 nM.
`COc1cc(C(O)(c2cccc(C(F)(F)F)c2)C(F)(F)F)ccc1-c1nc([C@@H]2CC[C@H]3CCC(=O)N3C2)n2ccnc(N)c12` (single isomer, unassigned) [Example 10]: the half-inhibitory concentration (IC50) in assay [1] stood at 496 nM; in assay [2] it was 2160 nM.
Turning to `CC(C)(c1cccc([C@@](C)(O)c2ccc(-c3nc([C@@H]4CC[C@H]5CCC(=O)N5C4)n4c(Cl)cnc(N)c34)cc2)c1)C(F)(F)F` [Example 123, (6R,8aS)-6-[8-amino-5-chloro-1-(4-{(1S)-1-hydroxy-1-[3-(2,2,2-trifluoro-1,1-dimethylethyl)phenyl]ethyl}phenyl)imidazo[1,5-a]pyrazin-3-yl]hexahydroindolizin-3(2H)-one], the 50% inhibitory concentration (IC50) in assay [1] was 117 nM; in assay [2] (Homo sapiens, HeLa), 945 nM.
As to `CC1(C)CC(=O)N2C[C@H](c3nc(-c4ccc([C@@](C)(O)c5cccc(C(F)F)c5)cc4)c4c(N)nccn34)CC[C@H]21` [Example 177, (6R,8aS)-6-[8-amino-1-(4-{(1R)-1-[3-(difluoromethyl)phenyl]-1-hydroxyethyl}phenyl)imidazo[1,5-a]pyrazin-3-yl]-1,1-dimethylhexahydroindolizin-3(2H)-one], the IC50 in assay [1] came to 0.1 nM; in assay [2] (Homo sapiens, HeLa) it was 1830 nM.
With `C[C@@](O)(c1ccc(-c2nc([C@H]3CC[C@@H]4COCC(=O)N4C3)n3c(Cl)cnc(N)c23)cc1)c1cccc(C(F)(F)F)c1` [Example 174, (7S,9aR)-7-[8-amino-5-chloro-1-(4-{(1R)-1-hydroxy-1-[3-(trifluoromethyl)phenyl]ethyl}phenyl)imidazo [1,5-a]pyrazin-3-yl]hexahydropyrido[2,1-c][1,4]oxazin-4(3H)-one], the IC50 turned out to be 85.7 nM in assay [1] and 1160 nM in assay [2] (Homo sapiens, HeLa).
Turning to `C[C@](O)(c1ccc(-c2nc([C@@H]3CC[C@H]4CCC(=O)N4C3)n3ccnc(N)c23)cc1)c1cccc(C2CC2)c1` [Example 51, (6R,8aS)-6-(8-amino-1-{4-[(1S)-1-(3-cyclopropylphenyl)-1-hydroxyethyl]phenyl}imidazo[1,5-a]pyrazin-3-yl)hexahydroindolizin-3(2H)-one], the IC50 in assay [1] is 5.9 nM; in assay [2] (Homo sapiens, HeLa), 569 nM.
As to `C[C@@](O)(c1ccc(-c2nc([C@H]3CN4C(=O)CC[C@@H]4CO3)n3ccnc(N)c23)cc1)c1cccc(C(F)(F)F)c1` [Example 169, (3R,8aR)-3-[8-amino-1-(4-{(1R)-1-hydroxy-1-[3-(trifluoromethyl)phenyl]ethyl}phenyl)imidazo[1,5-a]pyrazin-3-yl]hexahydro-6H-pyrrolo[2,1-c][1,4]oxazin-6-one], the IC50 in assay [1] is 7.2 nM; in assay [2] (Homo sapiens, HeLa), 4530 nM.
Turning to `C[C@@](O)(c1ccc(-c2nc([C@@H]3CC[C@H]4CCCN4C3)n3ccnc(N)c23)cc1)c1cccc(C(F)(F)F)c1` [Example 62, (1R)-1-(4-{8-amino-3-[(6R,8aS)-octahydroindolizin-6-yl]imidazo[1,5-a]pyrazin-1-yl}phenyl)-1-[3-(trifluoromethyl)phenyl] ethanol], the IC50 in assay [1] is 19.7 nM; in assay [2] (Homo sapiens, HeLa), 2300 nM.
Take `CC(O)(c1ccc(-c2nc([C@@H]3CC[C@H]4CCC(=O)N4C3)n3ccnc(N)c23)cc1)c1cccc(C(F)(F)F)c1` (stereo partly drawn) [Example 13, (6R,8aS)-6-(8-amino-1-(4-(1-hydroxy-1-(3-(trifluoromethyl)phenyl)ethyl)phenyl)imidazo[1,5-a]pyrazin-3-yl)hexahydroindolizin-3(2H)-one]: the IC50 in assay [1] was 1.7 nM; in assay [2] (Homo sapiens, HeLa), 873 nM.
As to `Nc1nccn2c([C@@H]3CC[C@H]4CCC(=O)N4C3)nc(-c3ccc(C(O)(c4cccc(C(F)(F)F)c4)C4CC4)cc3)c12` (stereo partly drawn) [Example 87, (6R,8aS)-6-[8-amino-1-(4-{cyclopropyl(hydroxy)[3-(trifluoromethyl)phenyl]methyl}phenyl)imidazo [1,5-a]pyrazin-3-yl]hexahydroindolizin-3(2H)-one], the IC50 in assay [1] amounted to 123 nM; in assay [2], 1580 nM.
For the compound `C[C@@](O)(c1ccc(-c2nc([C@@H]3CC[C@H]4CCC(=O)N4C3)n3ccnc(N)c23)cc1)c1cccc(N2CCOCC2)c1` [Example 66, (6R,8aS)-6-(8-amino-1-{4-[(1R)-1-hydroxy-1-(3-morpholin-4-ylphenyl)ethyl]phenyl}imidazo[1,5-a]pyrazin-3-yl)hexahydroindolizin-3(2H)-one], the 50% inhibitory concentration (IC50) in assay [1] was 796 nM; in assay [2] (Homo sapiens, HeLa) it was 4190 nM.
Regarding `C[C@](O)(c1ccc(-c2nc([C@@H]3CC[C@H]4CCC(=O)N4C3)n3ccnc(N)c23)cc1)c1cccc(C#N)c1` [Example 84, 3-[(1S)-1-(4-{8-amino-3-[(6R,8aS)-3-oxooctahydroindolizin-6-yl]imidazo[1,5-a]pyrazin-1-yl}phenyl)-1-hydroxyethyl]benzonitrile], the IC50 in assay [1] worked out at 1000 nM; in assay [2] (Homo sapiens, HeLa) it was 2380 nM.
As to `CC(C)N1CC(=O)N2C[C@H](c3nc(-c4ccc([C@@](C)(O)c5cccc(C(F)(F)F)c5)cc4)c4c(N)nccn34)CC[C@H]2C1` [Example 119, (7R,9aS)-7-(8-amino-1-(4-{(1R)-1-hydroxy-1-[3-(trifluoromethyl)phenyl]ethyl}phenyl)imidazo [1,5-a]pyrazin-3-yl]-2-(1-methylethyl)octahydro-4H-pyrido[1,2-a]pyrazin-4-one], the IC50 in assay [1] was 33.1 nM; in assay [2] (Homo sapiens, HeLa), 2410 nM.
Take `C[C@](O)(c1ccc(-c2nc([C@@H]3CC[C@H]4CCC(=O)N4C3)n3c(Cl)cnc(N)c23)cc1)c1cccc(C(F)F)c1` [Example 133, (6R,8aS)-6-[8-amino-5-chloro-1-(4-{(1S)-1-[3-(difluoromethyl)phenyl]-1-hydroxyethyl}phenyl)imidazo[1,5-a]pyrazin-3-yl]hexahydroindolizin-3(2H)-one]: the IC50 came to 118 nM in assay [1] and 460 nM in assay [2] (Homo sapiens, HeLa).
On to `C[C@@](O)(c1ccc(-c2nc([C@@H]3CC[C@H]4C(C(F)(F)F)CC(=O)N4C3)n3ccnc(N)c23)cc1)c1cccc(C(F)F)c1` (stereo partly drawn) [Example 184, (1R,6R,8aS)-6-[8-amino-1-(4-{(1R)-1-[3-(difluoromethyl)phenyl]-1-hydroxyethyl}phenyl)imidazo[1,5-a]pyrazin-3-yl]-1-(trifluoromethyl) hexahydroindolizin-3(2H)-one], for which the values for the 50% inhibitory concentration (IC50) in assay [1] and in assay [2] were 1.4 nM and 2660 nM, respectively.
In the case of `Nc1nccn2c([C@@H]3CC[C@H]4CCC(=O)N4C3)nc(-c3ccc(C(O)c4cccc(C(F)(F)F)c4)cc3)c12` (stereo partly drawn) [Example 72, (6R,8aS)-6-[8-amino-1-(4-{hydroxy[3-(trifluoromethyl)phenyl]methyl}phenyl)imidazo [1,5-a]pyrazin-3-yl]hexahydroindolizin-3(2H)-one], the half-inhibitory concentration (IC50) amounted to 20.4 nM in assay [1] and 469 nM in assay [2].
On to `C[C@](O)(c1ccc(-c2nc([C@@H]3CC[C@H]4CCC(=O)N4C3)n3c(Cl)cnc(N)c23)cc1)c1cccc(C(F)(F)F)c1` [Example 5, (6R,8aS)-6-(8-amino-5-chloro-1-(4-((S)-1-hydroxy-1-(3-(trifluoromethyl)phenyl)ethyl)phenyl)imidazo[1,5-a]pyrazin-3-yl)hexahydroindolizin-3(2H)-one], for which the 50% inhibitory concentration (IC50) in assay [1] was 377 nM; in assay [2] (Homo sapiens, HeLa), 553 nM.
Regarding `CC(O)(c1cccc(C(F)F)c1)c1ccc(-c2nc([C@@H]3CC[C@H]4CCC(=O)N4C3)n3c(F)cnc(N)c23)c(F)c1` (stereo partly drawn) [Example 207, (6R,8aS)-6-[8-amino-1-(4-{1-[3-(difluoromethyl)phenyl]-1-hydroxyethyl}-2-fluorophenyl)-5-fluoroimidazo[1,5-a]pyrazin-3-yl]hexahydroindolizin-3(2H)-one], the values for the half-inhibitory concentration (IC50) in assay [1] and in assay [2] were 459 nM and 933 nM, respectively.
For the compound `C[C@](O)(c1cccc(C(F)(F)F)c1)c1ccc(-c2nc([C@@H]3CC[C@H]4CCC(=O)N4C3)n3ccnc(N)c23)c(C(F)F)c1` [Example 81, (6R,8aS)-6-{8-amino-1-[2-(difluoromethyl)-4-{(1R)-1-hydroxy-1-[3-(trifluoromethyl)phenyl]ethyl}phenyl]imidazo [1,5-a]pyrazin-3-yl}hexahydroindolizin-3(2H)-one], the concentration for half-maximal inhibition (IC50) in assay [1] was found to be 1000 nM; in assay [2] (Homo sapiens, HeLa) it was 684 nM.
Regarding `CC(O)(c1cccc(C(F)F)c1)c1ccc(-c2nc([C@@H]3CC[C@H]4CCC(=O)N4C3)n3c(F)cnc(N)c23)c(F)c1` (stereo partly drawn) [Example 208, (6R,8aS)-6-(8-amino-1-(4-{1-[3-(difluoromethyl)phenyl]-1-hydroxyethyl}-2-fluorophenyl)-5-fluoroimidazo[1,5-a]pyrazin-3-yl]hexahydroindolizin-3(2H)-one], the IC50 stood at 1.6 nM in assay [1] and 5410 nM in assay [2].
